Earlier results on one molecule are cited in patent US6235268A, “Antiplaque oral composition and method” (Colgate-Palmolive Company, priority 2000, dated 2001).

The test system of the data set is rats. The following applies: Merck Index, Eleventh Ed., 1989.

For `COc1ccc(C(=O)c2ccccc2)c(O)c1` [2-hydroxy-4-methoxybenzophenone], the “LD-50 (oral/rats)” value is 12800 mg/kg.
